Experimental data taken from patent publication US20240239786A1, “COMPOSITIONS AND METHODS FOR THE TREATMENT AND PREVENTION OF CANCER” (Yale University, priority 2021, published 2024).

Experiments:
[1] = cited from earlier work
[2] = test system: MDA-MB231 breast cancer cells; experiment: Clonogenic assay, MDA-MB231; type: cell-based; settings: DB4 at 3 μM, 14 days
Description: Cells were plated for 24 hr, pre-treated with DB4 for 1 hr, and then treated with various concentrations of olaparib for 14 days. Colonies were stained and determined for clonogenic survival.
To further substantiate the effectiveness of DB4 and mitigate the issue of off-target effects with a higher concentration range of drugs used in the MTS cytotoxicity assay, clonogenic assays were carried out to determine the long-term survival of cells in response to treatments.
The assay was conducted as described previously (Lin Z P et al., 2014, Molecular Cancer Res, 12:381-393). Cells were plated at various densities in 6-well plates in triplicate. After 24 hr of incubation, cells were treated continuously with various concentrations of olaparib, DB4, or both drugs in combination. After 12-14 days, colonies were fixed/stained with crystal violet solution and counted to determine the percentage of survival using a GelDoc imaging system with QuantityOne software (Bio-Rad, Hercules, CA).

PEO1-OR cells = experiment: MTS cytotoxicity assay, sensitization to olaparib, PEO1-OR; type: cell-based
HR repair = experiment: HR reporter assay in SKOV3-DR-GFP cells; type: cell-based; settings: Homo sapiens, SK-OV-3, I-SceI-induced DSB, 48 hr, read-out: IC50 for inhibiting HR repair
Excerpt: Cells were transfected with the ISceI-expressing plasmid and then treated various concentrations of DB4 for 48 hr. Cells were harvested, stained with 7-AAD, and analyzed by flow cytometry for GFP-positive cells indicative of HR repair activity. […] Cells were transfected with the ISceI-expressing plasmid and treated with various concentrations of DB4. Cells were harvested, stained with 7-AAD, and stained, and analyzed by flow cytometry for GFP-positive cells indicative of NHEJ activity. Data are means±SD (N=3). *, p<0.05; **, p<0.01, compared with the 0 μM control of ISceI-transected cells. […] Cells were also scored for nuclei containing equal or more than 10 distinct Rad51 foci to determine the percentage of cells positive for Rad51 foci. […] Protein was assessed by western blot analysis for the levels of γH2AX, p-H1, cyclin A2, p-CDK1/2, and HSC70. […] The band density of γH2AX indicative of DSBs was quantified by densitometry. […]
The ability of DB4 to inhibit endonuclease-induced DSB repair of reporter genes in SKOV3 cells was evaluated. […]
SKOV3-DR-GFP cells were established as described previously (Lin Z P et al., 2014, Molecular Cancer Res, 12:381-393). […] Cells were then trypsinized, stained with 7-AAD, and analyzed for the percentage of GFP-positive and […] cells by flow cytometry using an LSR II flow cytometer (BD Biosciences) and FlowJo software (Tree Star; Ashland, OR). […]

Compound | half-life in plasma [1] | clonogenic survival in the presence of olaparib [2] | sensitization to olaparib (cell survival) (PEO1-OR cells; DB4 at 5 μM) | sensitization to olaparib (cell survival) (PEO1-OR cells; DB4 at 20 μM) | IC50 (HR repair) [µM]
NC(=S)NN=Cc1ncccc1N [triapine, 3-aminopyridine-2-carboxaldehyde-thiosemicarbazone, reference compound] | about 2 hr | – | – | – | –
C=CCn1c(SCc2cccc(Cl)c2)nnc1C1CCN(Cc2nc3ccccc3s2)CC1 [DB4, 2-[(4-{4-allyl-5-[(3-chlorobenzyl)thio]-4H-1,2,4-triazol-3-yl}-1-piperidinyl)methyl]-1,3-benzothiazole] | – | effectively reduced the clonogenic survival | partially sensitized | near-fully sensitized | 5.4
